From patent US20230391760A1, “HETEROCYCLIC GLP-1 AGONISTS” (Gasherbrum Bio, Inc., priority 2020, published 2023) come the findings set out here.

The assay has as its target GLP-1 Receptor (Homo sapiens, UniProt P43220). The assay can be described thus: GLP-1R agonist cAMP stimulation assay (HEK293/GLP1R/CRE-LUC cells, cAMP dynamic 2 Kit). The class given is cell-based. The settings on record: HEK293/CRE-Luc cell line stably expressing the GLP-1 Receptor, 30 min at 37° C. As for the experimental part:
Activation of GLP-1 receptor is known to stimulate cyclic AMP (cAMP) production in cells which indicates primary coupling to the Gαs subunit of the G protein heterotrimeric complex. […] To optimize functional activity directed toward Gαs coupling, a HEK293/CRE-Luc cell line developed by HDB stably expressing the GLP-1 Receptor was used. 200×concentration of compound working solutions were prepared (Agilent Technologies Bravo) with 1/2 log serial dilution in 384-well Echo LDV plate (Labcyte, Cat #LP-0200). 50 nL/well 200× concentration of compound working solutions were moved to 384-well white low volume plate (Greiner,Cat #784075) using Labcyte ECHO550. 1×10^5 cells/mL HEK293/GLP1R/CRE-LUC(HD Biosciences) cell suspensions prepared with assay buffer[DPBS containing 0.5 mM IBMX(Sigma, Cat #15879) and 0.1% BSA (GENVIEW, Cat #FA016-100 g)], 10 uL cell suspensions were added to each well of previous generated assay plate which already contains 50 nl compound at 200×concentration using ThermoFisher Multidrop Combi (1000 cells/well). Seal the plate and incubate at 37° C. with 5% CO2 for 30 min. After incubation the cAMP assay signal was generated using cAMP dynamic 2 Kit (Cisbio). 5 μL cAMP-d2 working solution was added to each well, followed with 5 μL Anti-cAMP antibody-cryptate working solution added to each well using ThermoFisher Multidrop Combi. Incubate at room temperature for 1 hour protected from light.

GLP-1 Receptor, sequence (P43220 24-463, species assumed): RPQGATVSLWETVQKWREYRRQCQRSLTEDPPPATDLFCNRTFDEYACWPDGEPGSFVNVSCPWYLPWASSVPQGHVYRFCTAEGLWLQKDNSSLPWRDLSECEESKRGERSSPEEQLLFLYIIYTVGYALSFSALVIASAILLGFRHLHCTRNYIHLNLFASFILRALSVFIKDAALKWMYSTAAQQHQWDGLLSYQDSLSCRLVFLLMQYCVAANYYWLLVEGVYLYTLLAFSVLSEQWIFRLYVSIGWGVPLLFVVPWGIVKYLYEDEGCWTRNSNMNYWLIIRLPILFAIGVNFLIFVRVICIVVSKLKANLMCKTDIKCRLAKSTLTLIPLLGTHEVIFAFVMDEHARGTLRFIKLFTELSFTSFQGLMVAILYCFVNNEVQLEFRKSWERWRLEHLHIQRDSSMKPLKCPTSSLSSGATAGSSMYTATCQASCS

Broadly, the EC50 is the midpoint of the concentration-response curve. Higher therefore signals a less potent agent. Compound `CC1(c2ccc(Cl)cn2)Oc2cccc(C3CCN(Cc4nc5cc(-c6nnc(C(F)(F)F)[nH]6)ncc5n4C[C@@H]4CCCO4)CC3)c2O1` (stereo partly drawn) [Compound 425a, 5-chloro-2-(2-methyl-4-{1-[(3-{[(2S)-oxolan-2-yl]methyl}-6-[5-(trifluoromethyl)-4H-1,2,4-triazol-3-yl]-3H-imidazo[4,5-c]pyridin-2-yl)methyl]piperidin-4-yl}-2H-1,3-benzodioxol-2-yl)pyridine] registered an EC50 of 0.13 nM.

On to `C[C@H](Cn1c(CN2CCC(c3cccc4c3O[C@@](C)(c3ccc(Cl)cn3)O4)CC2)nc2cc(-c3nnc(C(F)(F)F)[nH]3)ncc21)OC(F)F` [Compound 476a, 5-chloro-2-[(2S)-4-[1-({3-[(2R)-2-(difluoromethoxy)propyl]-6-[5-(trifluoromethyl)-4H-1,2,4-triazol-3-yl]-3H-imidazo[4,5-c]pyridin-2-yl}methyl)piperidin-4-yl]-2-methyl-2H-1,3-benzodioxol-2-yl]pyridine], for which the EC50 was 0.25 nM. The figure for `CC1(c2ccc(Cl)cc2F)Oc2cccc(C3CCN(Cc4nc5cc(-c6nnc(C(F)(F)F)[nH]6)cnc5n4C[C@@H]4CCCO4)CC3)c2O1` (stereo partly drawn) [Compound 246a, 4-[2-(4-chloro-2-fluorophenyl)-2-methyl-2H-1,3-benzodioxol-4-yl]-1-[(3-{[(2S)-oxolan-2-yl]methyl}-6-[5-(trifluoromethyl)-4H-1,2,4-triazol-3-yl]-3H-imidazo[4,5-b]pyridin-2-yl)methyl]piperidine] is 0.23 nM; for `C[C@]1(c2ccc(Cl)cc2F)Oc2cccc(C3CCN(Cc4nc5cc(-c6noc(=O)[nH]6)cnc5n4C[C@@H]4CCO4)CC3)c2O1` [Compound 262, 3-[2-({4-[(2S)-2-(4-chloro-2-fluorophenyl)-2-methyl-2H-1,3-benzodioxol-4-yl]piperidin-1-yl}methyl)-3-{[(2S)-oxetan-2-yl]methyl}-3H-imidazo[4,5-b]pyridin-6-yl]-4,5-dihydro-1,2,4-oxadiazol-5-one] it is 0.071 nM; for `O=C(CC(F)(F)F)Nc1ccc2c(c1)nc(CN1CCC(c3cccc(OCc4ccc(Cl)cc4F)n3)CC1)n2C[C@@H]1CCO1` [Compound 150a, N-{2-[(4-{6-[(4-chloro-2-fluorophenyl)methoxy]pyridin-2-yl}piperidin-1-yl)methyl]-1-{[(2S)-oxetan-2-yl]methyl}-1H-1,3-benzodiazol-5-yl}-3,3,3-trifluoropropanamide] it is 0.61 nM. As for `CC(=O)Nc1ccc2c(c1)nc(CN1CCC(c3cccc4c3OC[C@@H](c3ccc(Cl)cc3F)O4)CC1)n2C[C@@H]1CCO1` [Compound 114a, N-(2-((4-((R)-2-(4-chloro-2-fluorophenyl)-2,3-dihydrobenzo[b][1,4]dioxin-5-yl)piperidin-1-yl)methyl)-1-(((S)-oxetan-2-yl)methyl)-1H-benzo[d]imidazol-5-yl)acetamide], the figure is 58.9 nM; as for `Cc1nnc(-c2ccc3c(c2)nc(CN2CCC(c4cccc5c4O[C@@](C)(c4ccc(C#N)cc4F)O5)CC2)n3C[C@@H]2CCO2)[nH]1` [Compound 410a, 3-fluoro-4-[(2S)-2-methyl-4-(1-{[5-(5-methyl-4H-1,2,4-triazol-3-yl)-1-{[(2S)-oxetan-2-yl]methyl}-1H-1,3-benzodiazol-2-yl]methyl}piperidin-4-yl)-2H-1,3-benzodioxol-2-yl]benzonitrile], 0.029 nM. The figure for `CC1(c2ccc(Cl)cn2)Oc2cccc(C3CCN(Cc4nc5cc(-c6n[nH]c(C(F)(F)F)n6)ncc5n4C[C@@H]4CCO4)CC3)c2O1` (stereo partly drawn) [Compound 344a, 5-chloro-2-(2-methyl-4-{1-[(3-{[(2S)-oxetan-2-yl]methyl}-6-[5-(trifluoromethyl)-4H-1,2,4-triazol-3-yl]-3H-imidazo[4,5-c]pyridin-2-yl)methyl]piperidin-4-yl}-2H-1,3-benzodioxol-2-yl)pyridine] is 0.022 nM; for `Fc1cc(Cl)ccc1COc1cc(C2=CCN(Cc3nc4cc(-c5nnc(C(F)(F)F)[nH]5)cnc4n3C[C@@H]3CCO3)CC2)ccc1F` [Compound 294a, 4-{3-[(4-chloro-2-fluorophenyl)methoxy]-4-fluorophenyl}-1-[(3-{[(2S)-oxetan-2-yl]methyl}-6-[5-(trifluoromethyl)-4H-1,2,4-triazol-3-yl]-3H-imidazo[4,5-b]pyridin-2-yl)methyl]-1,2,3,6-tetrahydropyridine] it is 0.47 nM; for `C[C@]1(c2ccc(Cl)cc2F)Oc2cccc(C3CCN(Cc4nc5cc(-c6nnc(C7CC7)[nH]6)cnc5n4C[C@@H]4CCO4)CC3)c2O1` [Compound 282a, 4-[(2S)-2-(4-chloro-2-fluorophenyl)-2-methyl-2H-1,3-benzodioxol-4-yl]-1-{[6-(5-cyclopropyl-4H-1,2,4-triazol-3-yl)-3-{[(2S)-oxetan-2-yl]methyl}-3H-imidazo[4,5-b]pyridin-2-yl]methyl}piperidine] it is 0.45 nM. Take `O=C(Nc1ccc2c(c1)nc(CN1CCC(c3cccc(OCc4ccccc4)n3)CC1)n2C[C@@H]1CCO1)c1cccnc1` [Compound 204a, N-[2-({4-[6-(benzyloxy)pyridin-2-yl]piperidin-1-yl}methyl)-1-{[(2S)-oxetan-2-yl]methyl}-1H-1,3-benzodiazol-5-yl]pyridine-3-carboxamide]: the EC50 came to 0.84 nM. The figure for `CC(=O)Nc1ccc2c(c1)nc(CN1CCC(c3cccc4c3OC(C)(c3ccc(Cl)cc3F)O4)CC1)n2C[C@@H]1CCO1` (stereo partly drawn) [Compound 115a, N-(2-((4-(2-(4-chloro-2-fluorophenyl)-2-methylbenzo[d][1,3]dioxol-4-yl)piperidin-1-yl)methyl)-1-((S)-oxetan-2-ylmethyl)-1H-benzo[d]imidazol-5-yl)acetamide] is 1.17 nM. With `CC1(c2ccc(C#N)cc2)Oc2cccc(C3CCN(Cc4nc5cc(-c6nnc(C(F)(F)F)[nH]6)ccc5n4C[C@@H]4CCO4)CC3)c2O1` (stereo partly drawn) [Compound 260a, 4-(2-methyl-4-{1-[(1-{[(2S)-oxetan-2-yl]methyl}-5-[5-(trifluoromethyl)-4H-1,2,4-triazol-3-yl]-1H-1,3-benzodiazol-2-yl)methyl]piperidin-4-yl}-2H-1,3-benzodioxol-2-yl)benzonitrile], the EC50 was 0.031 nM. `N#Cc1ccc(COc2nc(C3CCN(Cc4nc5cc(-c6nnc(C(F)(F)F)[nH]6)nnc5n4C[C@@H]4CCO4)CC3)ccc2F)c(F)c1` [Compound 517a, 3-fluoro-4-{[(3-fluoro-6-{1-[(7-{[(2S)-oxetan-2-yl]methyl}-3-[5-(trifluoromethyl)-4H-1,2,4-triazol-3-yl]-7H-imidazo[4,5-c]pyridazin-6-yl)methyl]piperidin-4-yl}pyridin-2-yl)oxy]methyl}benzonitrile] came in with an EC50 of 0.043 nM. The figure for `O=C(Cc1ccccc1)Nc1ccc2c(c1)nc(CN1CCC(c3cccc(OCc4ccc(Cl)cc4F)n3)CC1)n2C[C@@H]1CCO1` [Compound 130a, N-{2-[(4-{6-[(4-chloro-2-fluorophenyl)methoxy]pyridin-2-yl}piperidin-1-yl)methyl]-1-{[(2S)-oxetan-2-yl]methyl}-1H-1,3-benzodiazol-5-yl}-2-phenylacetamide] is 5.1 nM; for `CC1(c2ccc(Cl)cc2F)Oc2cccc(C3CCN(Cc4nc5cc(-c6nnc(C(F)(F)F)[nH]6)c(F)cc5n4C[C@@H]4CCO4)CC3)c2O1` (stereo partly drawn) [Compound 248a, 2-({4-[2-(4-chloro-2-fluorophenyl)-2-methyl-2H-1,3-benzodioxol-4-yl]piperidin-1-yl}methyl)-6-fluoro-1-{[(2S)-oxetan-2-yl]methyl}-5-[5-(trifluoromethyl)-4H-1,2,4-triazol-3-yl]-1H-1,3-benzodiazole] it is 0.11 nM; for `CC1(c2ccc(Cl)cn2)Oc2cccc(C3CCN(Cc4nc5cc(-c6nnc(C(F)(F)F)[nH]6)ccc5n4C[C@@H]4CCO4)CC3)c2O1` (stereo partly drawn) [Compound 257a, 2-({4-[2-(5-chloropyridin-2-yl)-2-methyl-2H-1,3-benzodioxol-4-yl]piperidin-1-yl}methyl)-1-{[(2S)-oxetan-2-yl]methyl}-5-[5-(trifluoromethyl)-4H-1,2,4-triazol-3-yl]-1H-1,3-benzodiazole] it is 0.098 nM. The figure for `C[C@H]1CN(c2ccc(F)c(OCc3ccc(Cl)cc3F)c2)CCN1Cc1nc2cc(-c3nnc(C(F)(F)F)[nH]3)nnc2n1C[C@@H]1CCO1` [Compound 518a, (2S)-4-{3-[(4-chloro-2-fluorophenyl)methoxy]-4-fluorophenyl}-2-methyl-1-[(7-{[(2S)-oxetan-2-yl]methyl}-3-[5-(trifluoromethyl)-4H-1,2,4-triazol-3-yl]-7H-imidazo[4,5-c]pyridazin-6-yl)methyl]piperazine] is 0.41 nM. Consider `CC1(c2ccc(Cl)cc2F)Oc2cccc(C3CCN(Cc4nc5cc(-c6nnn[nH]6)ncc5n4C[C@@H]4CCO4)CC3)c2O1` (stereo partly drawn) [Compound 218a, 4-[2-(4-chloro-2-fluorophenyl)-2-methyl-2H-1,3-benzodioxol-4-yl]-1-[(3-{[(2S)-oxetan-2-yl]methyl}-6-(1H-1,2,3,4-tetrazol-5-yl)-3H-imidazo[4,5-c]pyridin-2-yl)methyl]piperidine], for which the EC50 was determined as 0.013 nM.
